Laboratory results published in paper PMC9486186 (Bioactive Materials, 2022).

Tested on: BCR-ABL(T315I) induced CML mice
Assay: Survival of BCR-ABL
Assay type: in vivo, mouse
Conditions: BPTES 10 mg/kg monotherapy

Q: How did the “mice still alive on day 60 post BMT” value turn out when `O=C(Cc1ccccc1)Nc1nnc(CCSCCc2nnc(NC(=O)Cc3ccccc3)s2)s1` [BPTES] was run?
A: 3/9
